According to patent US20250171434A1, “SEC61 INHIBITORS AND USE THEREOF” (KEZAR LIFE SCIENCES, INC., priority 2022, published 2025):

How the values were obtained:
[1] = system: PD1-ss+10aa/Gaussia Luciferase; experiment: Dox-Induced PD1-ss-Gluc Assay; format: cell-based; conditions: Flp-In 293 T-REx cells, 24 hours with doxycycline; Table 1; read-out: 24 hr Dox Inducible PD1ssGluc 293FRT/TO: Mean IC50
Description: Flp-In 293 T-REx™ cells were transfected with pcDNA™5/FRT/TO plasmid inserted with cDNA encoding Gaussia Luciferase fused to the 3′ end of cDNA encoding PD1 signal sequence plus 10 amino acids (N-[…]-C) (SEQ ID NO: 1). Transfected cells were selected for resistance to the selectable markers Hygromycin and Blasticidin to create a stable cell line that contained the PD1-ss+10aa/Gaussia Luciferase cDNA insert whose expression was regulated under the T-REx™ system. The day before assay, cells were trypsinized and plated in 384-well tissue culture plates. The next day, compound dilutions in DMSO/media containing doxycycline were added to the wells and incubated at 37° C., 5% CO2.
(§1) For chemical structures that include one or more stereoisomers, but are illustrated without indicating stereochemistry, the assay data refers to a mixture of stereoisomers.

[2] = system: IL-2-FL/Gaussia Luciferase; experiment: Dox Inducible IL2-FL-Gluc Assay; format: cell-based; conditions: Table 1; for IC50: Flp-In 293 T-REx cells, 24 hours with doxycycline, read-out: 24 hr Dox Inducible IL2FLGluc 293FRT/TO: Mean IC50; for 24 hr Dox Inducible IL2FLGluc 293FRT/TO: IL2/PD1: ratio of IC50s IL2/PD1
Description: Flp-In 293 T-REx™ cells were transfected with pcDNA™5/FRT/TO plasmid inserted with cDNA encoding Gaussia Luciferase fused to the 3′ end of cDNA encoding full length IL-2 (amino acids 1-153). Transfected cells were selected for resistance to the selectable markers Hygromycin and Blasticidin to create a stable cell line that contained the IL-2-FL/Gaussia Luciferase cDNA insert whose expression was regulated under the T-REx™ system. The day before assay, cells were trypsinized and plated in 384-well tissue culture plates. The next day, compound dilutions in DMSO/media containing doxycycline were added to the wells and incubated at 37° C., 5% CO2.
as §1

CD47(ss + 10)Gluc = experiment: Dox-Induced CD47-ss-Gluc Assay; format: cell-based; conditions: Flp-In 293 T-REx cells, 24 hours with doxycycline; Table 1; read-out: 24 hr Dox Inducible CD47(ss + 10)Gluc 293FRT/TO: Mean IC50
[3] = system: IL6R-ss+10aa/Gaussia Luciferase; experiment: Dox-induced IL-6R-ss-Gluc Assay; format: cell-based; conditions: Table 1; for IC50: Flp-In 293 T-REx cells, 24 hours with doxycycline, read-out: 24hr Dox Inducible IL6R(ss + 10)Gluc 293FRT/TO: Mean IC50; for 24hr Dox Inducible IL6R(ss + 10)Gluc 293FRT/TO: IL6R/PD1: ratio of IC50s IL6R/PD1
Description: Flp-In 293 T-REx™ cells were transfected with pcDNATM5/FRT/TO plasmid inserted with cDNA encoding Gaussia Luciferase fused to the 3′ end of cDNA encoding IL6R signal sequence plus 10 amino acids (N-[…]-C). Transfected cells were selected for resistance to the selectable markers Hygromycin and Blasticidin to create a stable cell line that contained the IL6R-ss+10aa/Gaussia Luciferase cDNA insert whose expression was regulated under the T-REx™ system. The day before assay, cells were trypsinized and plated in 384-well tissue culture plates. The next day, compound dilutions in DMSO/media containing doxycycline were added to the wells and incubated at 37° C., 5% CO2.
as §1

[4] = system: multiple myeloma cell line NCI-H929; experiment: H929 Cell Viability Assay; format: cell-based, human; conditions: Homo sapiens; NCI-H929 cells, 48 hours, Celltiter-Glo; read-out: 48 hr H929 Viability Celltiter-Glo: Mean EC50
Protocol: The human multiple myeloma cell line NCI-H929 was cultured in Advanced RPMI 1640 media (Gibco®) supplemented with 6% fetal bovine serum, 2 mM Glutamine, and 1× Penicillin/Streptomycin. On the day of assay, cells were resuspended in RPMI 1640 media supplemented with 10% fetal bovine serum, 2 mM Glutamine, and 1× Penicillin/Streptomycin and plated in 384-well tissue culture plates and treated with compound dilutions in DMSO/media. Plates were incubated at 37° C., 5% CO2 for 48 hours. After 48 hours, Celltiter-Glo® (Promega) was added to each well and luciferase signal was quantified using Tecan Infinite M1000 Pro for cell viability determination.
as §1

[5] = system: multiple myeloma cell line U266B1; experiment: U266 Cell Viability Assay; format: cell-based; conditions: Homo sapiens, U-266; U266B1 cells, 48 hours, Celltiter-Glo; read-out: 48 hr U266 Viability Celltiter-Glo: Mean EC50
Protocol: The human multiple myeloma cell line U266B1 was cultured in RPMI 1640 media supplemented with 10% fetal bovine serum, 2 mM Glutamine, and 1× Penicillin/Streptomycin. Cells were plated in 384-well tissue culture plates and treated with compound dilutions in DMSO/media. Plates were incubated at 37° C., 5% CO2 for 48 hours. After 48 hours, Celltiter-Glo® (Promega) was added to each well and luciferase signal was quantified using Tecan Infinite M1000 Pro for cell viability determination.
as §1

[6] = Liver Microsome Stability Assay, mouse; format: in vitro ADME; conditions: mouse liver microsomes 1.0 mg/mL, 1.0 uM compound, 37° C., 1 mM NADPH
Protocol: (§2) Stability of a compound was assessed in the presence of liver microsomes from various sources—mouse, rat, monkey and human liver microsomes. 1.0 uM compound, 0.4% DMSO in 0.1 M Potassium Phosphate with 1.0 mg/mL liver microsomes, were incubated at 37° C. with or without 1 mM NADPH. The samples were quenched at 0, and 30 minutes.

[7] = Liver Microsome Stability Assay, rat; format: in vitro ADME; conditions: rat liver microsomes 1.0 mg/mL, 1.0 uM compound, 37° C., 1 mM NADPH
Protocol: as §2

[8] = Liver Microsome Stability Assay, monkey; format: in vitro ADME; conditions: monkey liver microsomes 1.0 mg/mL, 1.0 uM compound, 37° C., 1 mM NADPH
Protocol: as §2

[9] = Liver Microsome Stability Assay, human; format: in vitro ADME; conditions: human liver microsomes 1.0 mg/mL, 1.0 uM compound, 37° C., 1 mM NADPH
Protocol: as §2

Row | SMILES | IC50 [1] [nM] | IC50 [2] [nM] | IC50 (CD47(ss + 10)Gluc) [nM] | IC50 [3] [nM] | EC50 [4] [nM] | EC50 [5] [nM] | Liver Microsome Stability (Multiple Species): Mouse - % Remaining after 30 min w/ NADPH (%) [6] [%] | Liver Microsome Stability (Multiple Species): Rat - % Remaining after 30 min w/ NADPH (%) [7] [%] | Liver Microsome Stability (Multiple Species): Monkey - % Remaining after 30 min w/ NADPH (%) [8] [%] | Liver Microsome Stability (Multiple Species): Human - % Remaining after 30 min w/ NADPH (%) [9] [%] | 24 hr Dox Inducible IL2FLGluc 293FRT/TO: IL2/PD1 [2] | 24hr Dox Inducible IL6R(ss + 10)Gluc 293FRT/TO: IL6R/PD1 [3]
1 | CC(C)n1cnc(/C=C/c2csc(NC(=O)c3cc(OC(F)F)cn3Cc3ccnc(F)c3)n2)c1Cl [Compound A7, (E)-N-(4-(2-(5-chloro-1-isopropyl-1H-imidazol-4-yl)vinyl)thiazol-2-yl)-4-(difluoromethoxy)-1-((2-fluoropyridin-4-yl)methyl)-1H-pyrrole-2-carboxamide] | 14 | 2700 | 2100 | 2430 | 19500 | > 25000 | 82 | 84 | 55 | 64 | 200 | 176
2 | O=C(Nc1nc(/C=C/c2ncoc2C(F)(F)F)cs1)c1cc(Cl)cn1Cc1ccnc(F)c1 [Compound A8, (E)-4-chloro-1-((2-fluoropyridin-4-yl)methyl)-N-(4-(2-(5-(trifluoromethyl)oxazol-4-yl)vinyl)thiazol-2-yl)-1H-pyrrole-2-carboxamide] | 129 | 1820 | 1740 | 1960 | 7440 | 12800 | 86 | 47 | 68 | 72 | 14 | 15
3 | CC(C)n1cnc(/C=C/c2csc(NC(=O)c3cc(Cl)cn3Cc3ccnc(F)c3)n2)c1C(F)(F)F [Compound A10, (E)-4-chloro-1-((2-fluoropyridin-4-yl)methyl)-N-(4-(2-(1-isopropyl-5-(trifluoromethyl)-1H-imidazol-4-yl)vinyl)thiazol-2-yl)-1H-pyrrole-2-carboxamide] | 11 | 1070 | 933 | 1060 | 5450 | > 25000 | 87 | 77 | 38 | 27 | 97 | 96
4 | COc1cc(C(=O)Nc2nc(/C=C/c3ncn(C4CC4)c3Cl)cs2)n(Cc2ccnc(F)c2)c1 [Compound A13, (E)-N-(4-(2-(5-chloro-1-cyclopropyl-1H-imidazol-4-yl)vinyl)thiazol-2-yl)-1-((2-fluoropyridin-4-yl)methyl)-4-methoxy-1H-pyrrole-2-carboxamide] | 5 | 2310 | 2030 | 2560 | > 25000 | > 25000 | 16 | 62 | 9 | 48 | 440 | 489

Further lines, with some results ahead:

Row | IC50 [1] [nM] | IC50 [2] [nM] | IC50 (CD47(ss + 10)Gluc) [nM] | IC50 [3] [nM] | EC50 [4] [nM] | EC50 [5] [nM] | Liver Microsome Stability (Multiple Species): Mouse - % Remaining after 30 min w/ NADPH (%) [6] [%] | Liver Microsome Stability (Multiple Species): Rat - % Remaining after 30 min w/ NADPH (%) [7] [%] | Liver Microsome Stability (Multiple Species): Monkey - % Remaining after 30 min w/ NADPH (%) [8] [%] | Liver Microsome Stability (Multiple Species): Human - % Remaining after 30 min w/ NADPH (%) [9] [%] | SMILES | 24 hr Dox Inducible IL2FLGluc 293FRT/TO: IL2/PD1 [2] | 24hr Dox Inducible IL6R(ss + 10)Gluc 293FRT/TO: IL6R/PD1 [3]
5 | > 25000 | > 25000 | > 25000 | > 25000 | > 25000 | > 25000 | 64 | 66 | 9 | 11 | COc1cc(C(=O)Nc2nc(/C(F)=C/c3cn(C(C)C)cn3)cs2)n(Cc2ccnc(F)c2)c1 [Compound A9, (Z)-N-(4-(1-fluoro-2-(1-isopropyl-1H-imidazol-4-yl)vinyl)thiazol-2-yl)-1-((2-fluoropyridin-4-yl)methyl)-4-methoxy-1H-pyrrole-2-carboxamide] |  | 
6 | 11 | 1180 | 1460 | 1200 | 11900 | > 25000 | 87 | 17 | 6 | 14 | [2H]C([2H])(c1ccnc(F)c1)n1cc(Cl)cc1C(=O)Nc1nc(/C=C/c2ncn(C3CC3)c2Cl)cs1 [Compound A11, (E)-4-chloro-N-(4-(2-(5-chloro-1-cyclopropyl-1H-imidazol-4-yl)vinyl)thiazol-2-yl)-1-((2-fluoropyridin-4-yl)methyl-d2)-1H-pyrrole-2-carboxamide] | 110 | 112
7 | 7 | 3440 | 3310 | 2110 | > 25000 | > 25000 | 76 | 20 | 4 | 29 | [2H]C([2H])(c1ccnc(F)c1)n1cc(OC)cc1C(=O)Nc1nc(/C=C/c2ncn(C3CC3)c2Cl)cs1 [Compound A14, (E)-N-(4-(2-(5-chloro-1-cyclopropyl-1H-imidazol-4-yl)vinyl)thiazol-2-yl)-1-((2-fluoropyridin-4-yl)methyl-d2)-4-methoxy-1H-pyrrole-2-carboxamide] | 520 | 318
